{"source": "patent US20060216342A1", "about": "“Micelle delivery system loaded with a pharmaceutical agent” (priority 2003, published 2006)", "key": {"LLC tumors": {"test_system": "LLC tumors", "assay": "Inhibition of LLC tumor growth in mice with different taxol preparations", "format": "in vivo", "conditions": "ca. 100 μg taxol per injection, two injections, twenty days after first injection, untreated 2.00±0.60 g", "description": "Inhibition of tumor growth with different taxol preparations. Mice with LLC tumors were injected with different taxol formulations on day 10 post inoculation (ca. 100 μg of taxol per animal per injection). On day 5 after the first administration, the injections were repeated. Twenty days after the first injection, the mice were sacrificed; tumors extracted, rinsed twice with saline, wiped, and weighed. There were five mice in each experimental group."}, "[1]": {"assay": "Encapsulation of tamoxifen into PEG-PE micelles", "format": "physicochemical", "conditions": "drug/PEG-PE molar ratio 1:1, after 0.22 μm filtration", "description": "Tamoxifen dissolved in methanol was added to the solution of PEG-PE in chloroform to obtain the drug/PEG-PE molar ratio of 1:1. Organic solvents were evaporated and micelles were formed by shaking the tamoxifen/PE-PEG film obtained in the presence of an aqueous buffer at 50° C. Free tamoxifen was removed by filtration through 0.22 μm filters. Tamoxifen was quantified using the assay procedure for diethylstilbesterol (United States Pharmacopeal Convention, 2000)."}, "[2]": {"assay": "Micelle size by dynamic light scattering and freeze-fracture electron microscopy", "format": "physicochemical", "conditions": "PEG-PE micelles with vs without tamoxifen", "description": "When required, 0.5 ml of a 12 μM solution of 2C5 or 2G4 in borate, pH 9.0 was added to 0.5 ml of pNP-PEG-PE-containing micelles with a PEG-PE concentration of 1.5 mM. The mixture was incubated for 3 h at room temperature (RT) and dialyzed against HBS, using cellulose ester membranes with a cut-off size of 300,000 Da (Spectrum Medical Industries, Rancho Dominguez, Calif.). To assess the quantity of the micelle-bound protein, CF-labeled antibody was used. Protein concentration was measured by associated fluorescence at an excitation wavelength of 490 nm and an emission of 520 nm on a F-2000 spectrofluorimeter (Hitachi, Japan). The micelle size was measured by dynamic light scattering using a N4 Plus Submicron Particle System (Coulter Corporation, Miami, Fla.) at PEG-PE concentration of 2-10 mM.\nFreeze-fracture electron microscopy. The sample was quenched using the sandwich technique and liquid nitrogen-cooled propane. A cooling rate of 10,000K/sec avoids ice crystal formation and cryofixation-caused artifacts. The fracturing process was carried out in JEOL JED-9000 freeze-etching equipment (Jeol, Peabody, Mass.) and the exposed fracture planes were shadowed with Pt for 30 sec at an angle of 25-35 degrees followed with carbon for 35 sec (2 kV, 60-70 mA, 1×10^−5 Torr). […]"}, "[3]": {"assay": "Incorporation of porphyrin into PEG-PE micelles", "format": "physicochemical", "description": "Porphyrin dissolved in methanol was added to a solution of PEG-PE in chloroform to obtain various final ratios of components. Organic solvents were removed under vacuum. Micelles were formed by shaking the PEG-PE/porphyrin film obtained in the presence of an aqueous buffer. Excess of porphyrin not incorporated into the micelles was separated by filtration of the micelle suspension through 0.2 μm filter. Concentration of porphyrin in micellar phase was estimated following the fluorescence at the excitation wavelength of […] and the emission wavelength of 674 nm (F635/674) after 100-200-fold dilution of the samples in methanol."}}, "data": [{"compound": "CC(=O)O[C@H]1C(=O)[C@@]2(C)[C@H]([C@H](OC(=O)c3ccccc3)[C@]3(O)C[C@H](OC(=O)[C@H](O)[C@@H](NC(=O)c4ccccc4)c4ccccc4)C(C)=C1C3(C)C)[C@]1(OC(C)=O)CO[C@@H]1C[C@@H]2O", "note": "[free taxol, paclitaxel]", "values": [{"measurement": "average weight of excised tumors", "setting": "LLC tumors", "result": "1.58 ± 0.48", "unit": "g"}]}, {"compound": "CC/C(=C(\\c1ccccc1)c1ccc(OCCN(C)C)cc1)c1ccccc1", "note": "[tamoxifen]", "values": [{"measurement": "tamoxifen incorporated into PEG-PE micelles", "setting": "[1]", "result": "more than 95%"}, {"measurement": "effect of drug incorporation on micelle size", "setting": "[2]", "result": "does not change the size of the micelles significantly"}]}, {"compound": "chlorin e6 trimethyl ester [porphyrin]", "values": [{"measurement": "efficiency of incorporation into micelles", "setting": "[3]; initial porphyrin/PEG-PE weight ratio of 1/2", "result": "about 80%"}, {"measurement": "efficiency of incorporation into micelles", "setting": "[3]; initial porphyrin/PEG-PE weight ratio of up to 1/5", "result": "~100", "unit": "%"}, {"measurement": "drug/PEG-PE in the resultant micelles", "setting": "[3]; initial weight ratio of 1/2", "result": "2/5"}]}]}
